Results from the supplement of paper PMC10307832.

Assays:
Test in all cases: relative viability (nuclei count vs DMSO), 5 days (fraction); higher = more cells survive
[1] = compound: C1COCCN1C2=NC(=NC3=C2OC4=C3C=CC=N4)C5=CC(=CC=C5)NC(=O)C6=CN=C(C=C6)N + O=C(CCCCCCC(=O)Nc1ccccc1)NO [Vorinostat] (partner 1 µM)
Outline: (§1)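 Lung cancer cell lines were seeded in 1536-well plates and dosed by pin tool the next day, with either a single drug or a fixed anchor-drug dose combined with five library-drug doses (not always all listed) spaced in √10 steps. Five days later, one step fixed the cells and stained their nuclei (final 0.05% Triton X-100, 1% formaldehyde, 1 ug/ml Hoechst), and nuclei were counted on 4× images. Relative viability is the nuclei count in treated wells divided by the count in vehicle wells, and each value is the median of duplicate plates.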

[2] = compound: C1COCCN1C2=NC(=NC3=C2OC4=C3C=CC=N4)C5=CC(=CC=C5)NC(=O)C6=CN=C(C=C6)N + O=C(c1cc(Cc2n[nH]c(=O)c3ccccc23)ccc1F)N1CCN(C(=O)C2CC2)CC1 [Olaparib] (partner 8 µM)
Outline: as §1

[3] = compound: CN1CCC(CNc2ccc3ncc(-c4cccc(OC(F)(F)F)c4)n3n2)CC1 [SGI-1776] + O=C(CCCCCCC(=O)Nc1ccccc1)NO [Vorinostat] (partner 1 µM)
Outline: as §1

[4] = compound: C1COCCN1C2=NC(=NC3=C2OC4=C3C=CC=N4)C5=CC(=CC=C5)NC(=O)C6=CN=C(C=C6)N + NC(=O)Nc1cc(-c2cccc(F)c2)sc1C(=O)N[C@H]1CCCNC1 [AZD7762] (partner 0.2 µM)
Outline: as §1

In the case of IA-LM, the relative viability ([1]; first compound 0.02 µM) is reported as 0.855, the relative viability ([1]; first compound 0.06325 µM) is reported as 1.03 and the relative viability ([1]; first compound 0.2 µM) is reported as 1.08. For the same cell line, the relative viability ([1]; first compound 0.6325 µM) was 0.44, the relative viability ([1]; first compound 2 µM) was 0.401 and the relative viability ([2]; first compound 0.02 µM) was 0.858. For the same cell line, the relative viability ([2]; first compound 0.06325 µM) was 0.826, the relative viability ([2]; first compound 0.2 µM) was 0.689 and the relative viability ([2]; first compound 0.6325 µM) was 0.616. It also gave a relative viability ([2]; first compound 2 µM) of 0.394, a relative viability ([3]; first compound 0.08 µM) of 0.956 and a relative viability ([3]; first compound 0.8 µM) of 0.914. For the same cell line, the relative viability ([3]; first compound 2.53 µM) was 0.922 and the relative viability ([3]; first compound 8 µM) was 0.926.
For HCC-827, the relative viability ([1]; first compound 0.02 µM) was 0.792, the relative viability ([1]; first compound 0.06325 µM) was 1.05 and the relative viability ([1]; first compound 0.2 µM) was 0.868. It also gave a relative viability ([1]; first compound 0.6325 µM) of 0.661, a relative viability ([1]; first compound 2 µM) of 0.811 and a relative viability ([4]; first compound 0.02 µM) of 0.191. For the same cell line, the relative viability ([4]; first compound 0.06325 µM) was 0.184, the relative viability ([4]; first compound 0.2 µM) was 0.167 and the relative viability ([4]; first compound 0.6325 µM) was 0.202. It also gave a relative viability ([4]; first compound 2 µM) of 0.198, a relative viability ([2]; first compound 0.02 µM) of 0.567 and a relative viability ([2]; first compound 0.06325 µM) of 0.61. For the same cell line, the relative viability ([2]; first compound 0.2 µM) was 0.771, the relative viability ([2]; first compound 0.6325 µM) was 0.575 and the relative viability ([2]; first compound 2 µM) was 0.589. The relative viability ([3]; first compound 0.08 µM) was 0.865, the relative viability ([3]; first compound 0.8 µM) was 0.908 and the relative viability ([3]; first compound 2.53 µM) was 0.858. For the same cell line, the relative viability ([3]; first compound 8 µM) was 0.806.
For NCI-H661, the relative viability ([1]; first compound 0.02 µM) was 0.766, the relative viability ([1]; first compound 0.06325 µM) was 0.803 and the relative viability ([1]; first compound 0.2 µM) was 0.769. The relative viability ([1]; first compound 0.6325 µM) was 0.806, the relative viability ([1]; first compound 2 µM) was 0.529 and the relative viability ([2]; first compound 0.02 µM) was 0.789. It also gave a relative viability ([2]; first compound 0.06325 µM) of 0.832, a relative viability ([2]; first compound 0.2 µM) of 0.717 and a relative viability ([2]; first compound 0.6325 µM) of 0.876. It also gave a relative viability ([2]; first compound 2 µM) of 0.426, a relative viability ([3]; first compound 0.08 µM) of 0.822 and a relative viability ([3]; first compound 0.8 µM) of 0.805. For the same cell line, the relative viability ([3]; first compound 2.53 µM) was 0.871 and the relative viability ([3]; first compound 8 µM) was 0.829.
CAL-12T gave a relative viability ([1]; first compound 0.02 µM) of 0.789, a relative viability ([1]; first compound 0.06325 µM) of 1 and a relative viability ([1]; first compound 0.2 µM) of 0.769. It also gave a relative viability ([1]; first compound 0.6325 µM) of 0.601, a relative viability ([1]; first compound 2 µM) of 0.431 and a relative viability ([4]; first compound 0.02 µM) of 0.632. It also gave a relative viability ([4]; first compound 0.06325 µM) of 0.617, a relative viability ([4]; first compound 0.2 µM) of 0.632 and a relative viability ([4]; first compound 0.6325 µM) of 0.673. It also gave a relative viability ([4]; first compound 2 µM) of 0.49, a relative viability ([2]; first compound 0.02 µM) of 0.66 and a relative viability ([2]; first compound 0.06325 µM) of 0.727. For the same cell line, the relative viability ([2]; first compound 0.2 µM) was 0.69, the relative viability ([2]; first compound 0.6325 µM) was 0.764 and the relative viability ([2]; first compound 2 µM) was 0.569. The relative viability ([3]; first compound 0.08 µM) was 0.794, the relative viability ([3]; first compound 0.8 µM) was 0.876 and the relative viability ([3]; first compound 2.53 µM) was 0.723. For the same cell line, the relative viability ([3]; first compound 8 µM) was 0.699.
For NCI-H2342, the relative viability ([1]; first compound 0.02 µM) was 0.821, the relative viability ([1]; first compound 0.06325 µM) was 0.876 and the relative viability ([1]; first compound 0.2 µM) was 0.849. For the same cell line, the relative viability ([1]; first compound 0.6325 µM) was 0.756, the relative viability ([1]; first compound 2 µM) was 0.627 and the relative viability ([4]; first compound 0.02 µM) was 0.498. For the same cell line, the relative viability ([4]; first compound 0.06325 µM) was 0.525, the relative viability ([4]; first compound 0.2 µM) was 0.476 and the relative viability ([4]; first compound 0.6325 µM) was 0.565. The relative viability ([4]; first compound 2 µM) was 0.463, the relative viability ([2]; first compound 0.02 µM) was 0.472 and the relative viability ([2]; first compound 0.06325 µM) was 0.46. For the same cell line, the relative viability ([2]; first compound 0.2 µM) was 0.402, the relative viability ([2]; first compound 0.6325 µM) was 0.391 and the relative viability ([2]; first compound 2 µM) was 0.4. It also gave a relative viability ([3]; first compound 0.08 µM) of 0.78, a relative viability ([3]; first compound 0.8 µM) of 0.723 and a relative viability ([3]; first compound 2.53 µM) of 0.707. The relative viability ([3]; first compound 8 µM) was 0.799.
SW 900 gave a relative viability ([1]; first compound 0.02 µM) of 0.455, a relative viability ([1]; first compound 0.06325 µM) of 0.573 and a relative viability ([1]; first compound 0.2 µM) of 0.488. The relative viability ([1]; first compound 0.6325 µM) was 0.425, the relative viability ([1]; first compound 2 µM) was 0.392 and the relative viability ([4]; first compound 0.02 µM) was 0.63. For the same cell line, the relative viability ([4]; first compound 0.06325 µM) was 0.606, the relative viability ([4]; first compound 0.2 µM) was 0.505 and the relative viability ([4]; first compound 0.6325 µM) was 0.522. The relative viability ([4]; first compound 2 µM) was 0.429, the relative viability ([2]; first compound 0.02 µM) was 0.981 and the relative viability ([2]; first compound 0.06325 µM) was 0.945. For the same cell line, the relative viability ([2]; first compound 0.2 µM) was 0.743, the relative viability ([2]; first compound 0.6325 µM) was 0.804 and the relative viability ([2]; first compound 2 µM) was 0.655. The relative viability ([3]; first compound 0.08 µM) was 0.506, the relative viability ([3]; first compound 0.8 µM) was 0.752 and the relative viability ([3]; first compound 2.53 µM) was 0.651. The relative viability ([3]; first compound 8 µM) was 0.361.
Work on LC-2-ad yielded a relative viability ([1]; first compound 0.02 µM) of 0.712, a relative viability ([1]; first compound 0.06325 µM) of 0.695 and a relative viability ([1]; first compound 0.2 µM) of 0.738. It also gave a relative viability ([1]; first compound 0.6325 µM) of 0.702, a relative viability ([1]; first compound 2 µM) of 0.508 and a relative viability ([4]; first compound 0.02 µM) of 0.939. For the same cell line, the relative viability ([4]; first compound 0.06325 µM) was 0.9, the relative viability ([4]; first compound 0.2 µM) was 0.831 and the relative viability ([4]; first compound 0.6325 µM) was 0.805. For the same cell line, the relative viability ([4]; first compound 2 µM) was 0.585, the relative viability ([2]; first compound 0.02 µM) was 0.678 and the relative viability ([2]; first compound 0.06325 µM) was 0.705. For the same cell line, the relative viability ([2]; first compound 0.2 µM) was 0.682, the relative viability ([2]; first compound 0.6325 µM) was 0.846 and the relative viability ([2]; first compound 2 µM) was 0.648. The relative viability ([3]; first compound 0.08 µM) was 0.676, the relative viability ([3]; first compound 0.8 µM) was 0.709 and the relative viability ([3]; first compound 2.53 µM) was 0.663. It also gave a relative viability ([3]; first compound 8 µM) of 0.66.
For EPLC-272H, the relative viability ([1]; first compound 0.02 µM) was 0.339, the relative viability ([1]; first compound 0.06325 µM) was 0.487 and the relative viability ([1]; first compound 0.2 µM) was 0.286. For the same cell line, the relative viability ([1]; first compound 0.6325 µM) was 0.429, the relative viability ([1]; first compound 2 µM) was 0.53 and the relative viability ([4]; first compound 0.02 µM) was 0.217. For the same cell line, the relative viability ([4]; first compound 0.2 µM) was 0.251, the relative viability ([4]; first compound 0.6325 µM) was 0.23 and the relative viability ([4]; first compound 2 µM) was 0.19. The relative viability ([2]; first compound 0.02 µM) was 0.732, the relative viability ([2]; first compound 0.06325 µM) was 0.807 and the relative viability ([2]; first compound 0.2 µM) was 0.547. The relative viability ([2]; first compound 0.6325 µM) was 0.721, the relative viability ([2]; first compound 2 µM) was 0.58 and the relative viability ([3]; first compound 0.08 µM) was 0.468. The relative viability ([3]; first compound 0.8 µM) was 0.505, the relative viability ([3]; first compound 2.53 µM) was 0.545 and the relative viability ([3]; first compound 8 µM) was 0.249.
